# Structures can show the parent of a compound that is named as a salt.
# Experiments:
# Assay type in all cases: in vivo
# [1] = system: glyphosate-resistant Amaranthus palmeri in which the number of copies of EPSPS gene had been increased; assay: Foliar spray pot test in greenhouse, herbicidal effect (Example 29); details: foliar spray 200 L/ha at 18 days, rated 14 days after treatment, rating 0 to 100
# Experimental: (§1) In a plastic pot filled with soli were seeded glyphosate-resistant Amaranthus palmeri in which the number of copies of EPSPS gene had been increased (produced by Azlin Seed Service) and glyphosate-sensitive Amaranthus palmeri (produced by Azlin Seed Service). The weeds were cultivated in a greenhouse for 18 days, and then an aqueous spray liquid [i.e., a liquid prepared by diluting a predetermined amount of a trifludimoxazin formulation (i.e., an emulsifiable concentrate prepared by mixing 20 parts of trifludimoxazin with 80 parts of a liquid cocktail (i.e., a mixture of 5 parts of cyclohexanone and 1 part of SORPOL 2680X (manufactured by TOHO Chemical Industry Co., Ltd.))) with water containing a spreading agent] was sprayed uniformly from above the weeds at the amount of 200 L/ha using a sprayer. Subsequently, the weeds were allowed to grow in a greenhouse for 14 days, and then the herbicidal effect was examined. As a reference example, the same procedure was carried out, except that the trifludimoxazin formulation was replaced with a predetermined amount of a glyphosate formulation (i.e., a soluble liquid containing 660 g/L of glyphosate potassium salt: “ROUNDUP MAXLOAD” (manufactured by Nissan Chemical Corporation). The results are shown in the table 1.
# [2] = system: glyphosate-sensitive Amaranthus palmeri; assay: as above; details: foliar spray 200 L/ha at 18 days, rated 14 days after treatment, rating 0 to 100
# Experimental: as §1
# [3] = system: glyphosate-resistant weeds (Amaranthus palmeri, waterhemp, kochia, marestail, Guernsey fleabane, fleabane, goosegrass, darnel, volunteer glyphosate-tolerant …); assay: Soil treatment pot test on day of seeding (Example 1); details: soil treatment at 6.25, 12.5, 25, 50, 100 or 150 g/ha; 200 L/ha; twenty-eight days after the treatment
# Experimental: (§2) In a plastic pot filled with soil are seeded glyphosate-resistant Amaranthus palmeri in which the number of copies of EPSPS gene has been increased, glyphosate-resistant waterhemp in which the number of copies of EPSPS gene has been increased, glyphosate-resistant kochia in which the number of copies of EPSPS gene has been increased, marestail which is resistant to glyphosate by involving an ABC transporter, Guernsey fleabane which is resistant to glyphosate by involving an ABC transporter, fleabane which is resistant to glyphosate by involving an ABC transporter, glyphosate-resistant goosegrass having Thr102Ile, glyphosate-resistant goosegrass having Pro106Ser, glyphosate-resistant goosegrass having Pro106Ala, glyphosate-resistant goosegrass having Pro106Leu, glyphosate-resistant goosegrass having Thr102Ile and Pro106Ser, glyphosate-resistant darnel having Thr102Ile, glyphosate-resistant darnel having Pro106Ser, glyphosate-resistant darnel having Pro106Ala, glyphosate-resistant darnel having Pro106Leu, volunteer glyphosate-tolerant soybean, and volunteer glyphosate-tolerant cotton. On the same day, the soil is treated with trifludimoxazin at the application rate of 6.25, 12.5, 25, 50, 100 or 150 g/ha. The amount of a liquid sprayed is 200 L/ha. Subsequently, the plants are cultivated in a greenhouse.
# [4] = system: glyphosate-resistant weeds (Amaranthus palmeri, waterhemp, kochia, marestail, Guernsey fleabane, fleabane, goosegrass, darnel, volunteer glyphosate-tolerant …); assay: Foliar treatment pot test 21 days after seeding (Example 2); details: foliage application at 6.25, 12.5, 25, 50, 100 or 150 g/ha; 200 L/ha; fourteen days after the treatment
# Experimental: as §2, with “The plants are cultivated in a greenhouse for 21 days, and then trifludimoxazin is applied to foliage of” for “On”, “plants” for “same day, the soil is treated with trifludimoxazin”, “at” for “at the”
Compound,Effect on glyphosate-resistant Amaranthus palmeri ([1]; application rate 1540 g/ha),Effect on glyphosate-resistant Amaranthus palmeri ([1]; application rate 6160 g/ha),Effect on glyphosate-sensitive Amaranthus palmeri ([2]; application rate 385 g/ha),Effect on glyphosate-sensitive Amaranthus palmeri ([2]; application rate 1540 g/ha),Effect on glyphosate-resistant Amaranthus palmeri ([1]; application rate 6.25 g/ha),Effect on glyphosate-resistant Amaranthus palmeri ([1]; application rate 12.5 g/ha),Effect on glyphosate-resistant Amaranthus palmeri ([1]; application rate 25 g/ha),Effect on glyphosate-sensitive Amaranthus palmeri ([2]; application rate 6.25 g/ha),Effect on glyphosate-sensitive Amaranthus palmeri ([2]; application rate 12.5 g/ha),Effect on glyphosate-sensitive Amaranthus palmeri ([2]; application rate 25 g/ha),effect against the weeds [3],effect against the weeds [4]
"O=C(O)CNCP(=O)(O)O [Glyphosate potassium salt, glyphosate potassium salt]",20,70,100,100,–,–,–,–,–,–,–,–
"C#CCN1C(=O)C(F)(F)Oc2cc(F)c(-n3c(=O)n(C)c(=S)n(C)c3=O)cc21 [Trifludimoxazin, trifludimoxazin]",–,–,–,–,100,100,100,65,70,80,significant effect,significant effect

# Source: US12262713B2, “Method of controlling weeds” (SUMITOMO CHEMICAL COMPANY, LIMITED, priority 2018, dated 2025)
